These results are taken from US20240399175A1, “REVERSAL OF SENESCENCE BY ULTRASOUND IRRADIATION” (Board of Regents, The University of Texas System, priority 2021, published 2024).

The subject of the experiment is Vero cells. Kind of experiment: Senescence induction in Vero cells by chemical stressors (growth, cell size). It counts as cell-based, African monkey. The conditions noted are these: for cell growth of stressor-treated cells: 200 μM H2O2, 4 μM sodium butyrate, 25 μM Bleomycin Sulphate for 36-48 hours, growth over 48 h. Here is the method:
To test the generality of any senescent treatment, the inventors used four different methods to cause Vero cell senescence, replicative, hydrogen peroxide, sodium butyrate and Bleomycin sulfate. Senescence was measured as a decreased growth rate, increased O-gal activity, increased cell size, and secretion of pro-inflammatory factors called SASP. All four criteria were met with each type of senescent cells (FIGS. 1A to 1G). […] (FIG. 1B). There were significant differences in the size of the senescent cells with bleomycin sulfate-treated cells being the largest and replicative senescent cells the smallest (FIGS. 1C and 1D). To assay for SASP activity, the inventors cultured the senescent cells overnight and collected the supernatant from each dish. Supernatants were diluted 1:1 with fresh media and added to normal control cells. The change in normal cell number was measured after a 48 hour incubation. […] When β-galactosidase levels were measured by antibody staining, there was a relatively uniform increase in levels (FIGS. 1F and 1G). Thus, by all four criteria, the four different types of senescent cells were indeed senescent.
Senescence induction and quantification. Vero cells were treated with various stressors including 200 μM H2O2, 4 μM of sodium butyrate (SB), and 25 μM of Bleomycin Sulphate (BS) and incubated for 36-48 hours. After washing with PBS and then replacing growth medium with fresh medium, cells were incubated for 4 days to confirm the growth arrest of senescent cells. […] The inventors used four criteria to determine if cells were senescent; (1) Cell cycle arrest by determining the growth rate, (2) Increase in cell spread area, (3) Development of senescence associated secretory phonotype (SASP) in culture medium, and (4) beta-gal staining. The inventors captured images of cells with an Evos microscope at 10× magnification after treatment and 48 hours post treatment. To measure growth by the increase in cell number, 15 random images were captured, then the average number of cells were determined, which was divided by the area of one frame to get the cell density (cells/cm^2). Then this seeding density was multiplied by the total area of the dish or well to obtain the total number of cells after US treatment and after 48 hours if incubation. The total number of cells at 48 hours was divided by the total number of cells just after the treatment to determine the growth rate. If the ratio was one, there was no growth.
Senescence was detected by the beta-gal senescence staining kit as per manufacturer's protocol. […] The percentages of beta-gal positive cells were determined by counting the number of blue cells and dividing by the total number of cells. Cell spread area was determined by capturing the mages of cells with a 10× objective using an Evos microscope. […]

For the compound `OO` [hydrogen peroxide], the “cell growth of stressor-treated cells” value is “cell growth was effectively blocked”.
For the compound `CCCC(=O)[O-].[Na+]` [sodium butyrate], the “cell growth of stressor-treated cells” value is listed as “cell growth was effectively blocked”.
Consider Bleomycin sulfate, for which the “cell growth of stressor-treated cells” value is on record as “cell growth was effectively blocked”. Moreover, the “size of the senescent cells” value (comparison among types of senescent cells) was “largest”.
